# Measured values as given in the supplement of paper PMC11061612.
# What was measured:
# Assay in all cases: combination Emax (second highest fraction inhibited in the dose matrix, 72 h); higher = more inhibition; extreme values may be limits of the assay
# [1] = tested on: P32-ISH (Burkitt's Lymphoma)
# In short: (§1)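 Bliss excess equals the observed combination effect minus the expected value EA + EB − EA·EB, where EA and EB are the effects of each agent alone. Combination Emax is the second-highest inhibition within the matrix. Inhibition was scaled from CellTiter-Glo 2.0 luminescence, with 0 set by vehicle wells and 1 by blank wells, after 72 hours of two-drug dosing of cells plated in 1536-well plates.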
# [2] = tested on: SUP-M2 (T-Cell Non-Hodgkin's Lymphoma)
# In short: as §1
# [3] = tested on: SiHa (Cervical Carcinoma)
# In short: as §1
# [4] = tested on: MOLP-8 (Plasma Cell Myeloma)
# In short: as §1
# [5] = tested on: P30-OHK (B-Lymphoblastic Leukemia)
# In short: as §1
# [6] = tested on: T84 (Colorectal Carcinoma)
# In short: as §1
# [7] = tested on: PA-TU-8988T (Pancreatic Carcinoma)
# In short: as §1
# AM-38 (Glioblastoma) = tested on: AM-38 (Glioblastoma)
# In short: as §1
# [8] = tested on: RCC-JW (Kidney Carcinoma)
# In short: as §1
# NB1 (Neuroblastoma) = tested on: NB1 (Neuroblastoma)
# In short: as §1
# KALS-1 (Glioblastoma) = tested on: KALS-1 (Glioblastoma)
# In short: as §1
# [9] = tested on: NCI-H3118 (Head and Neck Carcinoma)
# In short: as §1
# [10] = tested on: LCLC-103H (Non-Small Cell Lung Carcinoma)
# In short: as §1
# [11] = tested on: IA-LM (Non-Small Cell Lung Carcinoma)
# In short: as §1
# [12] = tested on: HT-1080 (Other Solid Carcinomas)
# In short: as §1
# [13] = tested on: MONO-MAC-6 (Acute Myeloid Leukemia)
# In short: as §1
# [14] = tested on: PL4 (Pancreatic Carcinoma)
# In short: as §1
# [15] = tested on: MS-1 (Small Cell Lung Carcinoma)
# In short: as §1
# [16] = tested on: MDA-MB-415 (Breast Carcinoma)
# In short: as §1
# [17] = tested on: Raji (Burkitt's Lymphoma)
# In short: as §1
Structure (SMILES),combination Emax [1],combination Emax [2],combination Emax [3],combination Emax [4],combination Emax [5],combination Emax [6],combination Emax [7],combination Emax (AM-38 (Glioblastoma)),combination Emax [8],combination Emax (NB1 (Neuroblastoma)),combination Emax (KALS-1 (Glioblastoma)),combination Emax [9],combination Emax [10],combination Emax [11],combination Emax [12],combination Emax [13],combination Emax [14],combination Emax [15],combination Emax [16],combination Emax [17]
"Cc1nc(Nc2ncc(C(=O)Nc3c(C)cccc3Cl)s2)cc(N2CCN(CCO)CC2)n1 [Dasatinib] + CC(=O)Nc1cccc(-n2c(=O)n(C3CC3)c(=O)c3c(Nc4ccc(I)cc4F)n(C)c(=O)c(C)c32)c1 [Trametinib] (first compound max 2 µM, 7x7, partner max 1 µM)",0.411,0.126,0.329,0.621,0.202,0.816,0.887,0.713,0.859,0.139,0.917,0.811,0.326,0.654,0.61,0.589,0.955,0.125,0.385,0.134
"COc1cc2ncnc(Nc3ccc(F)c(Cl)c3)c2cc1OCCCN1CCOCC1 [Gefitinib] + CC(C)n1c(=O)n(C)c2cnc3cc(F)c(-c4ccc(OCCCN5CCCCC5)nc4)cc3c21 [AZD1390] (first compound max 10 µM, 7x7, partner max 0.3 µM)",0.333,0.116,0.0755,0.413,0.173,0.227,0.15,0.123,0.226,0.0869,0.127,0.518,0.195,0.202,0.0949,0.42,0.125,0.273,0.191,0.162
"CN(C)CCCOc1ccc(-c2ccc3ncc4c(c3c2)n(C2CCOCC2)c(=O)n4C)cn1 [AZD0156] + CCN(CCO)CCCOc1ccc2c(Nc3cc(CC(=O)Nc4cccc(F)c4)[nH]n3)ncnc2c1 [AZD2811] (first compound max 1 µM, 7x7, partner max 1 µM)",0.962,0.94,0.135,0.603,0.834,0.023,0.219,0.342,0.093,0.641,0.214,0.0407,0.29,0.0974,0.142,0.743,0.256,0.224,0.206,0.165
"CN(C)CCCOc1ccc(-c2ccc3ncc4c(c3c2)n(C2CCOCC2)c(=O)n4C)cn1 [AZD0156] + C[C@@H]1COCCN1C2=NC(=NC(=C2)C3(CC3)[S@](=N)(=O)C)C4=C5C=CNC5=NC=C4 [AZD6738] (first compound max 1 µM, 7x7, partner max 10 µM)",0.951,0.985,0.234,0.848,0.877,0.668,0.476,0.868,0.597,0.933,0.868,0.672,0.55,0.304,0.507,0.858,0.718,0.873,0.395,0.87
"Cc1cc2ncnn2cc1Nc1ncc2c(n1)n(C1CCOCC1)c(=O)n2C [AZD7648] + CCN(CCO)CCCOc1ccc2c(Nc3cc(CC(=O)Nc4cccc(F)c4)[nH]n3)ncnc2c1 [AZD2811] (first compound max 10 µM, 7x7, partner max 1 µM)",0.935,0.932,0.335,0.493,0.85,0.287,0.33,0.405,0.447,0.629,0.386,0.239,0.377,0.268,0.261,0.787,0.142,0.342,0.472,0.19
"COc1nnc2ccc(N3CCC(c4ccc(OCCN5CCN(C)C(=O)[C@H]5C)cc4)CC3)nn12 [AZD5153] + Cc1c2c(nn1C)CSCc1cc(n(C)n1)CSc1cc(c3ccccc3c1)OCCCc1c(C(=O)O)n(C)c3c-2c(Cl)ccc13 [AZD5991] (first compound max 1 µM, 7x7, partner max 1 µM)",1,1,0.666,1,1,0.23,0.886,0.295,0.3,0.52,0.814,0.678,0.414,0.483,0.378,1,0.63,0.961,0.693,0.896
"CC1(C)CCC(CN2CCN(c3ccc(C(=O)NS(=O)(=O)c4ccc(NCC5CCOCC5)c([N+](=O)[O-])c4)c(Oc4cnc5[nH]ccc5c4)c3)CC2)=C(c2ccc(Cl)cc2)C1 [Venetoclax] + C=CCn1c(=O)c2cnc(Nc3ccc(N4CCN(C)CC4)cc3)nc2n1-c1cccc(C(C)(C)O)n1 [AZD1775] (first compound max 1 µM, partner max 1 µM)",1,0.981,0.223,0.75,0.992,0.577,0.728,0.289,0.286,0.889,0.93,0.836,0.394,0.36,0.349,0.992,0.551,0.939,0.206,0.725
"CC1(C)CCC(CN2CCN(c3ccc(C(=O)NS(=O)(=O)c4ccc(NCC5CCOCC5)c([N+](=O)[O-])c4)c(Oc4cnc5[nH]ccc5c4)c3)CC2)=C(c2ccc(Cl)cc2)C1 [Venetoclax] + C[C@@H](Nc1cc(F)cc(F)c1)c1cc(C(=O)N(C)C)cc2c(=O)cc(N3CCOCC3)oc12 [AZD8186] (first compound max 1 µM, 7x7, partner max 3 µM)",0.341,0.344,0.243,0.455,0.794,0.101,0.257,0.157,0.293,0.145,0.741,0.0963,0.253,0.0865,0.164,0.808,0.243,0.32,0.663,0.172
"CC(=O)Nc1cccc(-n2c(=O)n(C3CC3)c(=O)c3c(Nc4ccc(I)cc4F)n(C)c(=O)c(C)c32)c1 [Trametinib] + Cc1nc(-c2cn3c(n2)-c2ccc(-c4cnn(C(C)(C)C(N)=O)c4)cc2OCC3)n(C(C)C)n1 [Taselisib] (first compound max 1 µM, 7x7, partner max 10 µM)",0.508,0.534,0.302,1,0.49,0.96,0.762,0.909,0.556,0.995,0.951,0.966,0.539,0.486,0.628,1,0.951,0.513,0.848,0.144
"Cc1c2c(nn1C)CSCc1cc(n(C)n1)CSc1cc(c3ccccc3c1)OCCCc1c(C(=O)O)n(C)c3c-2c(Cl)ccc13 [AZD5991] + Cc1cc2ncnn2cc1Nc1ncc2c(n1)n(C1CCOCC1)c(=O)n2C [AZD7648] (first compound max 1 µM, 7x7, partner max 10 µM)",1,1,0.255,1,0.649,0.0921,0.319,0.615,0.319,0.211,0.377,0.308,0.363,0.295,0.179,1,0.386,0.564,0.619,0.728
"CCN(CCO)CCCOc1ccc2c(Nc3cc(CC(=O)Nc4cccc(F)c4)[nH]n3)ncnc2c1 [AZD2811] + C[C@@H]1COCCN1C2=NC(=NC(=C2)C3(CC3)[S@](=N)(=O)C)C4=C5C=CNC5=NC=C4 [AZD6738] (first compound max 1 µM, 7x7, partner max 10 µM)",0.992,0.999,0.225,0.791,0.928,0.675,0.35,0.747,0.545,0.79,0.828,0.599,0.5,0.304,0.336,0.908,0.657,0.72,0.498,0.691
"CC1(C)CCC(CN2CCN(c3ccc(C(=O)NS(=O)(=O)c4ccc(NCC5CCOCC5)c([N+](=O)[O-])c4)c(Oc4cnc5[nH]ccc5c4)c3)CC2)=C(c2ccc(Cl)cc2)C1 [Venetoclax] + COc1cc(Nc2ncc3c(n2)-c2ccc(Cl)cc2C(c2c(F)cccc2OC)=NC3)ccc1C(=O)O [Alisertib] (first compound max 1 µM, 7x7, partner max 10 µM)",1,0.902,0.212,0.633,1,0.315,0.403,0.41,0.286,0.561,0.647,0.312,0.539,0.617,0.299,0.964,0.448,0.392,0.379,0.252
